Molecular target: T1, Prostaglandin D2 receptor (Rattus norvegicus, UniProt Q9R261)
T1 sequence (Q9R261 whole entry): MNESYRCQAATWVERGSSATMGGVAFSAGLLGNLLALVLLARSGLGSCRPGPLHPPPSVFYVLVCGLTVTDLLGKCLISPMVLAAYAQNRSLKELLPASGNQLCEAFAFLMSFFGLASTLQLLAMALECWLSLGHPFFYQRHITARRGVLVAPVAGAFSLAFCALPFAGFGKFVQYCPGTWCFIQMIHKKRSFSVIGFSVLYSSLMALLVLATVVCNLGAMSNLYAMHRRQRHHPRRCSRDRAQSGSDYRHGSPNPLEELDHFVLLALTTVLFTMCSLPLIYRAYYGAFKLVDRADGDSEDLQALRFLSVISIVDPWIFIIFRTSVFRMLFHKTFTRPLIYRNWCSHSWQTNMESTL

CCCCCC(O)C=CC1C(=O)CC(O)C1CC=CCCCC(=O)OC (stereo unspecified) [CAS_114676]
Ki: 27 nM

CCCCC[C@@H](O)/C=C/[C@H]1[C@H](O)CC(=O)[C@@H]1CCCCCCC(=O)O
Ki: 3760 nM

CCCCC[C@H](O)/C=C/[C@H]1OC(O)C[C@H](O)[C@@H]1C/C=C\CCCC(=O)O (stereo partly specified) [THROMBOXANE B2]
Ki: 4200 nM

CCCCC[C@H](O)/C=C/C1[C@H](O)C[C@H](O)[C@@H]1C/C=C\CCCC(=O)O (stereo partly drawn) [(Z)-7-[(1R,3R,5S)-3,5-Dihydroxy-2-((E)-(S)-3-hydroxy-oct-1-enyl)-cyclopentyl]-hept-5-enoic acid]
Ki: 693 nM

CCCCC[C@H](O)/C=C/[C@H]1[C@H](O)CC(=O)[C@@H]1C/C=C\CCCC(=O)O [DINOPROSTONE]
Ki: 2950 nM

CCCCCC(O)C=CC1=C(CC=CCCCC(=O)O)C(=O)CC1 (stereo unspecified) [NSC_5280881]
Ki: > 10000 nM

CCCCC[C@H](O)C=C[C@H]1C=CC(=O)[C@@H]1C/C=C\CCCC(=O)O [(Z)-7-[(1R,5S)-2-oxidanylidene-5-[(E,3S)-3-oxidanyloct-1-enyl]cyclopent-3-en-1-yl]hept-5-enoic acid]
Ki: > 10000 nM

CCCCCC(O)C=CC1C(O)CC2OC(=CCCCC(=O)O)CC21 (stereo unspecified) [NSC_5282411]
Ki: 3540 nM

CCCCCC(O)CC=C1C(=O)C=CC1CC=CCCCC(=O)O (stereo unspecified) [CAS_41598-07-6]
Ki: 19 nM

CCCCCC(O)C=CC1C(=O)CC(O)C1CCCCCCC(=O)O (stereo unspecified) [NSC_205449]
Ki: 523 nM

CCCCC[C@H](O)/C=C/[C@@H]1[C@@H](CC(=O)CCCCC(=O)O)[C@@H](O)C[C@H]1O [6-KETO-PROSTAGLANDIN F1ALPHA]
Ki: > 10000 nM

Source: BindingDB's records for PubMed 6292197 (Kyoto University, 1982)
